The record followed here is patent US10426757B2, “Compositions and methods for promoting intestinal stem cell and/or non-stem progenitor cell function” (Whitehead Institute for Biomedical Research, priority 2014, dated 2019).

Each structure is given as a SMILES string. “Also recorded” adds a separate entry of the source.

For the test, the system named is PPAR-δ target genes. The test can be described thus: PPAR-δ target gene and protein expression in flow sorted ISCs and progenitors (qRT-PCR, immunoblot, RNA-seq). The class given is in vivo, mouse. The settings on record: GW501516 for 4 weeks, protein level. From the text: Antibodies: rabbit polyclonal anti-PPAR-δ (1:100, Thermo PA1-823A), rabbit polyclonal anti-Cpt1a (1:250, ProteinTech 15184-1-AP), rabbit polyclonal anti-HMGCS2 (1:500, Sigma AV41562), rabbit monoclonal anti-FABP1 (1:1000, Abcam ab129203), rabbit polyclonal anti-γ-tubulin (1:1000, Sigma T5192). Lgr5-GFP^hi ISCs or GFP^low progenitors were sorted directly into sample buffer and boiled for five minutes. Samples were resolved by SDS-PAGE and analyzed by immunoblotting with goat anti-rabbit IgG-HRP secondary antibodies (1:10,000, Santa Cruz Biotechnology sc-2054) and Western Lightning Plus-ECL detection kit (Perkin Elmer, NEL 104001EA).
Cells were sorted into Tri Reagent (Life Technologies) and total RNA was isolated according to the manufacturer's instructions with following modification: the aqueous phase containing total RNA was purified using RNeasy plus kit (Qiagen). RNA was converted to eDNA with cDNA synthesis kit (Bio-Rad). qRT-PCR was performed with SYBR green master mix (Bio-Rad) on Bio-Rad iCycler RT-PCR detection system. Primers used are listed on Table 4 below.
RNA Isolation. […] From the total RNA, poly(A)^+ RNA was selected using Oligo(dT)25-Dynabeads (Life technologies) according to the manufacturer's protocol.

Regarding `Cc1cc(SCc2sc(-c3ccc(C(F)(F)F)cc3)nc2C)ccc1OCC(=O)O` [GW501516, 2-[2-methyl-4-[[4-methyl-2-[4-(trifluoromethyl)phenyl]-1,3-thiazol-5-yl]methylsulfanyl]phenoxy]acetic acid], the “PPAR-δ target proteins in ISCs and progenitors” value is reported as “strong induction; also recorded: upregulated”.
